Reference: a melting point compilation (Tetko et al.; mined from patent text by program, amines drawn as free bases though some values may be those of a salt)

`Cc1nc(NC(=O)c2ccccc2)cn1CCCCC1(C(=O)NCC(F)(F)F)c2ccccc2-c2ccccc21` showed a melting point of 145 to 147 °C. Molecule `CCn1cc(C(=O)O)c(=O)c2cc(F)c(N3CC4CC3CN4)c(F)c21` (stereo unspecified) has a melting point of 233 to 236 °C. Molecule `C=C(CC(C)C)C(=O)O` has a melting point of 101 to 105 °C. Work on `CC(C)(C)OC(=O)CC(O)c1ccc(Cl)nc1NC(=O)C(C)(C)C` (stereo unspecified) yielded a melting point of 130 to 132 °C. `CC(C)=CCCC(C)=CCc1c(-c2ccc(O)cc2O)oc2cc(O)cc(O)c2c1=O` showed a melting point of 94 to 95 °C. `Cn1c2ccccc2c(=O)c2c([N+](=O)[O-])cccc21` showed a melting point of 308 to 309 °C. `C=CCc1cc(F)ccc1OCCCN1CCC2(CC1)C(=O)NCN2c1ccccc1` showed a melting point of 110 to 113 °C. `O=C(OCC1CCc2c(O)cccc2C1)N(c1ccccc1)c1ccccc1` (stereo unspecified) showed a melting point of 96 to 98 °C. Molecule `COC(=O)c1ccc(CCNCC(O)c2cc3ccccc3o2)cc1` (stereo unspecified) has a melting point of 117 to 119 °C. With `c1ccc(COc2ccc(-c3ccc(OCCCN4CCCCC4)cc3)nn2)cc1` the melting point was 138 °C. For `Cc1c(C)c2c(c(C)c1NC(=O)c1ccc3c(c1)OCO3)C(c1ccc(C(C)C)cc1)C(C)(C)O2` (stereo unspecified), the melting point was 165 to 167 °C. For `Cc1cc(C)c(-c2csc(N)n2)c(C)c1`, the melting point was 138 °C. `COC(=O)c1cccc(CNC(=O)C2CC2)c1C(=O)OC` gave a melting point of 240 to 242 °C. `CCOC(=O)C1=C(C)NC(C)=C(C(=O)OCC)C1c1ccccc1C` gave a melting point of 128 to 130 °C. With `O=C(O)c1cccc(Oc2cccc(C(F)(F)F)c2)n1` the melting point was 47 to 49 °C. For `N#Cc1cc(-c2ccnc(Nc3cccc(Cl)c3)n2)ccn1`, the melting point was 221 to 222 °C. For `CC(C)(C)C(=O)OCOC(=O)C(C)(C)n1nc2ccc(NCCCN3CCC(OC(c4ccccc4)c4ccccc4)CC3)nn2c1=O`, the melting point was 162 °C. For `CC(C)c1cccc(-c2ccc(F)cc2)c1/C=C/COc1ccc(C(=O)C(=O)O)cc1`, the melting point was 142 to 143 °C. `COc1cnn(C)c(=O)c1-c1c(C)cc(C)cc1C` gave a melting point of 186 to 192 °C. In the case of `CCOC(=O)C1=C(C=O)NC(C(F)(F)F)=C(C(=O)OCC)C1c1cccc2nonc12` (stereo unspecified), the melting point is reported as 94 to 95 °C. Work on `C#CC1(OCc2cc(F)ccc2F)CCN(C(C)=O)CC1` yielded a melting point of 90 to 93 °C. For `O=C(Nc1ccc(-n2nc(C3CC3)cc2C2CC2)c(F)c1)c1c(Cl)cncc1Cl`, the melting point was 280 to 281 °C. `COc1cccc(CO)c1CO` showed a melting point of 95 °C. In the case of `O=C(O)Cc1c(C(=O)c2ccc(Cl)cc2)[nH]c2cc(Cl)c(F)cc12`, the melting point is reported as 215 to 220 °C. `COc1ccc(-c2cc(-c3ccc(F)cc3)c3c(=O)n(C)c(=O)n(C)c3n2)cc1` gave a melting point of 240 to 243 °C. `CC(C)(C)OC(=O)N1CCN(c2ccc(OCC3(C)Cn4cc([N+](=O)[O-])nc4O3)cc2)CC1` (stereo unspecified) showed a melting point of 212 to 214 °C. In the case of `CSC(C)(C(=O)O)c1ccc(CC(C)C)cc1` (stereo unspecified), the melting point is reported as 89 to 92 °C. Molecule `O=C(Nc1ccc(-n2nc(C(F)(F)F)cc2C(F)(F)F)cc1)c1cccnc1F` has a melting point of 110 to 112 °C. `CC1CC(C)OP(=O)(Cc2ccc(N)cc2)O1` (stereo unspecified) showed a melting point of 160 to 161 °C. For `C=Cc1ccccc1N1CCCCC1`, the melting point was 147 to 150 °C. In the case of `O=C1N(C(c2ccccc2)c2ccccc2)c2c(F)cccc2C1(O)c1cc2c(cc1O)OCC2` (stereo unspecified), the melting point is reported as 121 to 122 °C. In the case of `O=C(NC1CCN(Cc2ccccc2)CC1)c1n[nH]c2ccccc12`, the melting point is reported as 198 to 200 °C. In the case of `CCN(CC)C(=O)C(C)Cc1nc(-c2ccccc2)nc2ccccc12` (stereo unspecified), the melting point is reported as 93.5 °C. For `COCCN(CCC12CC3CC(CC(C3)C1)C2)C(=O)NCCCc1ccncc1`, the melting point was 102 to 104 °C. In the case of `C/C(=C(\C#N)C(=S)/N=C/N(C)C)N1CCCN(c2ccc(F)c(C)c2)CC1`, the melting point is reported as 148 to 150 °C. Work on `COC(=O)c1cc(C(=O)c2c(C)c(OC)c3c(OCC(=O)OC(C)(C)C)cccn23)ccc1N` yielded a melting point of 188 °C. `C=CC(=O)NC(C)(C)C(=O)NCC(OC)OC` gave a melting point of 80 to 82 °C. `COC(=O)C(Oc1cccc2ccccc12)c1ccc(Oc2ccc(Cl)cc2)cc1` (stereo unspecified) showed a melting point of 107 to 110 °C. For `O=P1(c2ccccc2)c2ccccc2CN1c1ccc(Br)cc1` (stereo unspecified), the melting point was 200 to 202 °C. In the case of `FC(F)(F)c1ccc(-c2ncn(CCCN3CCOCC3)c2-c2ccncc2)cc1`, the melting point is reported as 133 °C. For `Oc1cc(/C=C/c2ccccc2)cc(O)c1O`, the melting point was 172 °C. For `CC(C)(CN1CCCCC1)Nc1ccnc2cc(Cl)ccc12`, the melting point was 143 to 147 °C. `CCCCOC(=O)C=CCOc1ccc(F)c(C(N)=O)c1F` showed a melting point of less than 40 °C. With `CCOC(=O)c1ccc(-c2nc(N)sc2Cc2ccc(S(C)(=O)=O)cc2)cc1` the melting point was 206 to 207 °C. Work on `[N-]=[N+]=NC1(O)CC(n2cc(Br)c(=O)[nH]c2=O)OC1CO` (stereo unspecified) yielded a melting point of 148 to 149 °C. With `Cc1cc(C2=NNC(=O)Cc3cc4c(cc32)OCO4)ccc1[N+](=O)[O-]` the melting point was 275 to 277 °C. In the case of `COc1ccc(C2CNC(=O)O2)cc1OCc1ccccc1` (stereo unspecified), the melting point is reported as 83 to 91 °C. With `COc1cc2c(cc1N1CCN(CC3=CC4=CSCC4=C3)CC1)OCC2` the melting point was 156 to 158 °C. For `CCOC(=O)c1ccc(N(C)C)nn1`, the melting point was 112 °C. Work on `COc1ccc2c(Cc3ccco3)nnc(-c3ccccc3)c2c1` yielded a melting point of 128 to 129 °C. Molecule `CCCCCCCCNC(=O)Nc1ccccc1C(=O)NC1CCN(Cc2ccccc2)CC1` has a melting point of 129 °C. `Oc1ccc2nc(-n3ccnc3)nc(NCc3ccccc3)c2c1` gave a melting point of 230 °C. In the case of `CCc1ccc2[nH]c(=O)[nH]c(=O)c2c1`, the melting point is reported as 271 to 274 °C. `C[C@H](N=Cc1ccc(OCc2cccc(F)c2)cc1)C(N)=O` gave a melting point of 112 °C. In the case of `CCOC(=O)C1=CC(=O)CCC1S(=O)(=O)Nc1ccc(F)cc1Cl` (stereo unspecified), the melting point is reported as 128 to 130 °C. In the case of `CCOc1nn(Cc2ccc(OCc3cn4c(OCC)cccc4n3)cc2)cc1CCC(=O)O`, the melting point is reported as 197 to 198 °C. Molecule `CCNC(=O)Cn1c(=O)c(=O)[nH]c2cc([N+](=O)[O-])c(-n3cccc3)cc21` has a melting point greater than 300 °C. `N#Cc1cc(C(=O)NNC(=O)c2occc2-c2ccc(Oc3ccccc3)cc2)ccc1O` gave a melting point of 199 to 200 °C. With `O=S(=O)(Nc1cccnc1Nc1ccccc1)c1cccc(Cl)c1` the melting point was 143 to 144 °C. Work on `CCn1c(=O)c(C)cc2cnc(SC)nc21` yielded a melting point of 84 to 86 °C. Work on `Cc1ccsc1-c1nc(CCl)co1` yielded a melting point of 95 to 96 °C. With `O=C(Nc1ccccc1)NN1CCc2[nH]c(=O)n3nc(-c4ccccc4F)nc3c2C1` the melting point was 291 to 293 °C. `Cc1cc2c(cc1C1=NNC(=O)CC1)N(C)C(=O)C(C)O2` (stereo unspecified) gave a melting point of 210 to 212 °C. Molecule `CCCCCC(c1ccc(OC)cc1OC)C(C(N)=O)c1cc(C(=O)O)ccc1C(C)(C)C` (stereo unspecified) has a melting point of 153 to 154 °C. Work on `CSc1nccc(C(C)=O)n1` yielded a melting point of 35 °C. `COc1cc(-c2nc(NC3CCCC3)c3c(C)c(C#N)sc3n2)cc(OC)c1OC` gave a melting point of 218 to 220 °C. In the case of `CCC1CC(=O)N(Cc2cccc(NC(C)=O)c2)N=C1c1ccc(OC)c(OC2CCCC2)c1` (stereo unspecified), the melting point is reported as 70 °C. `C=Cn1ccnc1C(O)(c1ccccc1)c1ccccc1C(C)(C)C` (stereo unspecified) showed a melting point of 152 to 153 °C. `CC(C)=CCc1cc(C2CC(=O)c3ccc(O)cc3O2)ccc1O` (stereo unspecified) showed a melting point of 76 to 78 °C. Molecule `CC1CCCC(Cc2c[nH]c3c(=O)[nH]c(N)nc23)C1` (stereo unspecified) has a melting point of 282 °C. In the case of `Cc1nnc2n1-c1sc(CC(=O)N3CCCCC3)cc1C(c1ccccc1Cl)=NC2C` (stereo unspecified), the melting point is reported as 182 to 183 °C. `O=C(O)Cc1cccc(OCCCCl)c1` showed a melting point of 83 to 84 °C. With `CCCCCC(CCC(=O)c1ccc(OCC)cc1)C(=O)O` (stereo unspecified) the melting point was 61 °C. For `O=C(O)c1ccc(NCc2cc(Cl)c(Cl)s2)cc1`, the melting point was 225 to 227 °C. `CC(=O)OCC(=O)C1(O)C(C)CC2C3CCC4=CC(=O)CCC4(C)C3=CCC21C` (stereo unspecified) gave a melting point of 197 to 201 °C. In the case of `COc1cccc2c1nc(C1CC1)n2CC=C(C)C`, the melting point is reported as 41 to 42 °C. Molecule `Fc1ccccc1[C@@H]1Cc2cnc(Nc3cccc(CCN4CCNCC4)c3)nc2-c2ccccc21` has a melting point of 165 to 167 °C. Molecule `Cn1cc(C(=O)O)c(=O)c2c3cc(N4CCC[C@H]4CNc4ccccc4)c(F)cc3ncc21` has a melting point of 250 °C. `COC(=O)C1=C(C)NC(C)=C(C(=O)OCCN2CCN(C(c3ccccc3)c3ccccc3)CC2)C1c1cccc([N+](=O)[O-])c1` (stereo unspecified) gave a melting point of 166 to 169 °C. In the case of `O=c1[nH]cnc2c1nc(CC1CCN(Cc3ccccc3)CC1)n2Cc1ccc(F)cc1`, the melting point is reported as 197 °C. `CCOC(=O)c1cn(CCCl)c2nc(N3CCN(C(C)=O)CC3)ncc2c1=O` gave a melting point of 205 to 206 °C. `COc1nc(OC)nc(SC(C(=O)O)C(C)(C)c2ccccc2)n1` (stereo unspecified) showed a melting point of 115 to 118 °C. Molecule `Cc1cccc(NC(=O)NC2N=C(C3CCCCC3)c3cccc(C)c3N(CC(=O)C3CCCCC3)C2=O)c1` (stereo unspecified) has a melting point of 159 to 170 °C. Molecule `CCOC(=O)c1c(C(F)(F)F)nc(C(F)(F)F)c(C(=O)OCC)c1Cl` has a melting point of 76 to 77 °C. Work on `CS(=O)(=O)Nc1ccc(OCCCNC(=O)c2ccc(Br)cc2)cc1` yielded a melting point of 208 to 209 °C. Work on `COC(=O)C1=C(C)NC(C)=C(C(=O)OC)C1c1ccccc1CO` yielded a melting point of 218 to 220 °C. In the case of `CCc1nn(C)c2[nH]c(=O)c3ccccc3c12`, the melting point is reported as 291 to 294 °C. With `CC(=O)c1nc(Cl)ccc1N` the melting point was 108 to 110 °C. Molecule `CN1C(=O)c2ccccc2C[C@H]1C(=O)O` has a melting point of 173 to 175 °C. Molecule `COc1ccc(C(O)CCS(=O)(=O)c2ccc(S(N)(=O)=O)s2)cc1` (stereo unspecified) has a melting point of 129 to 130 °C. Work on `Cc1cc(N2C(=O)c3ccccc3C2=O)c(C)cc1N=CN(C)C` yielded a melting point of 170 to 173 °C. `COC(=O)c1c(C2=CC(=O)c3cccc(O)c3C2=O)c(C)n(C)c1C` showed a melting point of 178 to 180 °C. For `O=C(O)c1cn(-c2ccc(F)cc2F)c2nc(Cl)c(F)cc2c1=O`, the melting point was 242 to 244 °C. In the case of `CCCc1c(OCCCOc2ccc(C(=O)C(=O)OCC)cc2)ccc(C(=O)OC)c1O`, the melting point is reported as 62 to 64 °C. `CCCCCCNC(=O)Oc1ccc2ncccc2c1` gave a melting point of 89 °C. `N#Cc1cnn(-c2nc(Cl)c(C(F)(F)F)cc2Cl)c1N` showed a melting point of 168 to 171 °C. For `CN(Cc1ccc(Cl)cc1)S(=O)(=O)c1cn(S(=O)(=O)N(C)C)c(C#N)n1`, the melting point was 162 to 163 °C. Work on `Cc1sc(N)c(C(=O)c2ccco2)c1C` yielded a melting point of 95 to 97 °C. `O=C1Cc2cc(C3=NNC(=O)C4CCC34)ccc2N1` (stereo unspecified) showed a melting point of 309 to 312 °C. With `CCCCc1nc(SC)c(C(=O)O)n1Cc1ccc(-c2ccccc2-c2nnn[nH]2)cc1` the melting point was 180 °C. `COC(=O)c1ccc2sc(/C=C/c3cccc(N)c3)nc2c1` showed a melting point of 165 to 167 °C.
